Reference: publication PMC10119927, “Compact Rotaxane Superbases” (Journal of the American Chemical Society, 2023)
Values joined by “and” are separate entries in the source; they are usually repeats but may differ in a detail not shown here. Equal values may be shown once. “Also recorded” adds a separate entry of the source. Read-outs that look alike come from different tables or passages of the source.

Tests used:
[1] = cited from earlier work
[2] = Hydrolytic decomposition in 1 M NaOD in 9:1 v/v CD3OD/D2O
[3] = pKaH+ determination by Lambert's method with reference bases (1H NMR); conditions: for pKaH+: Lambert's method
Procedure: The pKaH^+ values shown were determined in CD3CN using Lambert’s method[8] with appropriate reference bases (see Supporting Information, Section 2.0).

[4] = Base-mediated elimination of HBr from 4-bromophenethyl bromide: deprotonation kinetics and protonation vs alkylation; conditions: for Half-life, t1/2: calculated based on second-order kinetics; for half-life (h) (25 °C) / half-life (h) (80 °C): deprotonation of 4-bromophenethyl bromide
[5] = hydrolytic decomposition, 1 M NaOD, 9:1 CD3OD/D2O, 25 °C
[6] = 25 °C, 1 M NaOD in 9:1 d4-methanol:D2O, pseudo-first-order
[7] = hydrolytic decomposition, 1 M NaOD, 9:1 CD3OD/D2O, 80 °C
[8] = 80 °C, 1 M NaOD in 9:1 d4-methanol:D2O, pseudo-first-order
[9] = Table 1, conventional superbases
[10] = Table S1, conventional superbases

SMILES: NCCCCN [1,4-diaminobutane]
- pKaH+ ([1]; in CD3CN, reference base): 20.1

SMILES: C1COCCOCCOCCOCCOCCOCCO1.FC(F)(F)c1cc(CNCc2cc(C(F)(F)F)cc(C(F)(F)F)c2)cc(C(F)(F)F)c1 [21C7⊂3]
- hydrolytic stability (in words) ([2]; 1 M NaOD, 9:1 CD3OD/D2O): consumed completely within a matter of minutes; also recorded: decompose quickly
- half-life (25 °C) [2, 5]: <0.083 h
- pKaH+ (MeCN) ([3]; Table 1, rotaxanes): 24.9
- pKaH+ ([3]; in CD3CN): 24.9 ± 0.1
- increase in the basicity of the secondary amine upon encapsulation ([3]; rotaxane vs thread 3, from pKaH+ values): 10^13 fold
- Half-life, t1/2 ([4]; 80 °C): 169.69 days
- half-life (h) (25 °C) ([4]; 25 °C): >5000 h
- half-life (h) (80 °C) ([4]; 80 °C): 4073 h
- rate of substrate deprotonation relative to the other rotaxanes in the series ([4]; in words): much more slowly

SMILES: C1COCCOCCOCCOCCOCCOCCO1.FC(F)(F)c1cc(C[NH2+]Cc2cc(C(F)(F)F)cc(C(F)(F)F)c2)cc(C(F)(F)F)c1.F[P-](F)(F)(F)(F)F [21C7⊂3•HPF6]
- Half-life [2, 6]: < 0.083 h
- pKaH+ (MeCN) ([3]; Table S2, rotaxane HPF6 salts): 24.9

SMILES: C1COCCOCCOCCOCCOCCOCCO1.Cc1cc(C)cc(CNCc2cc(C)cc(C)c2)c1 [21C7⊂6]
- hydrolytic stability (in words) ([2]; 1 M NaOD, 9:1 CD3OD/D2O): stable; also recorded: excellent chemical stability
- half-life (25 °C) [2, 5]: >170 h
- half-life (80 °C) [2, 7]: >170 h
- pKaH+ (MeCN) ([3]; Table 1, rotaxanes): 32.2
- basicity higher than either non-interlocked component ([3]; in CD3CN): ~13 orders of magnitude
- pKaH+ ([3]; in CD3CN): 32.2 ± 0.6
- Half-life, t1/2 ([4]; 25 °C): 0.00625 days
- half-life (h) (25 °C) ([4]; 25 °C): 0.15 h
- rate of deprotonation of 4-bromophenethyl bromide relative to the conventional organic superbases ([4]; in words): several thousand times faster

SMILES: C1COCCOCCOCCOCCOCCOCCO1.Cc1cc(C)cc(C[NH2+]Cc2cc(C)cc(C)c2)c1.F[P-](F)(F)(F)(F)F [21C7⊂6•HPF6]
- Half-life [2, 8]: > 170 h
- pKaH+ (MeCN) ([3]; Table S2, rotaxane HPF6 salts): 32.2

SMILES: C1COCCOCCOCCOCCOCCOCCOCCO1.CC(C)(C)c1cc(CNCc2cc(C(C)(C)C)cc(C(C)(C)C)c2)cc(C(C)(C)C)c1 [24C8⊂2]
- hydrolytic stability (in words) ([2]; 1 M NaOD, 9:1 CD3OD/D2O): decompose quickly
- half-life (25 °C) [2, 5]: 6 h
- pKaH+ (MeCN) ([3]; Table 1, rotaxanes): 26.3
- pKaH+ ([3]; in CD3CN): 26.3 ± 0.22 and 26.3 ± 0.2
- Half-life, t1/2 ([4]; 80 °C): 10.8 days
- half-life (h) (25 °C) ([4]; 25 °C): >5000 h
- half-life (h) (80 °C) ([4]; 80 °C): 260 h
- rate of substrate deprotonation relative to the other rotaxanes in the series ([4]; in words): much more slowly

SMILES: C1COCCOCCOCCOCCOCCOCCOCCO1.CC(C)(C)c1cc(C[NH2+]Cc2cc(C(C)(C)C)cc(C(C)(C)C)c2)cc(C(C)(C)C)c1.F[P-](F)(F)(F)(F)F [24C8⊂2•HPF6]
- Half-life [2, 6]: 6.2 h
- pKaH+ (MeCN) ([3]; Table S2, rotaxane HPF6 salts): 26.3

SMILES: C1COCCOCCOCCOCCOCCOCCOCCO1.FC(F)(F)c1cc(CNCc2cc(C(F)(F)F)cc(C(F)(F)F)c2)cc(C(F)(F)F)c1 [24C8⊂3]
- hydrolytic stability (in words) ([2]; 1 M NaOD, 9:1 CD3OD/D2O): stable
- half-life (25 °C) [2, 5]: >170 h
- half-life (80 °C) [2, 7]: >170 h
- pKaH+ (MeCN) ([3]; Table 1, rotaxanes): 20.5
- pKaH+ ([3]; in CD3CN): 20.5 ± 0.1
- Half-life, t1/2 ([4]; 25 °C): 7.317 days
- half-life (h) (25 °C) ([4]; 25 °C): 176 h

SMILES: C1COCCOCCOCCOCCOCCOCCOCCO1.FC(F)(F)c1cc(C[NH2+]Cc2cc(C(F)(F)F)cc(C(F)(F)F)c2)cc(C(F)(F)F)c1.F[P-](F)(F)(F)(F)F [24C8⊂3•HPF6]
- Half-life [2, 8]: > 170 h
- pKaH+ (MeCN) ([3]; Table S2, rotaxane HPF6 salts): 20.5

SMILES: C1COCCOCCOCCOCCOCCOCCOCCO1.CC(C)(C)c1cc(CNCc2cc(C(F)(F)F)cc(C(F)(F)F)c2)cc(C(C)(C)C)c1 [24C8⊂4]
- pKaH+ ([3]; in CD3CN): 22.9 ± 0.3 and 22.9 ± 0.1

SMILES: C1COCCOCCOCCOCCOCCOCCOCCO1.COc1c(C(C)(C)C)cc(CNCc2cc(C(F)(F)F)cc(C(F)(F)F)c2)cc1C(C)(C)C [24C8⊂5]
- pKaH+ ([3]; in CD3CN): 23.2 ± 0.3 and 23.2 ± 0.2

SMILES: FC(F)(F)c1cc(C[NH2+]Cc2cc(C(F)(F)F)cc(C(F)(F)F)c2)cc(C(F)(F)F)c1.F[P-](F)(F)(F)(F)F.c1ccc2c(c1)OCCOCCOCCOc1ccccc1OCCOCCOCCO2 [DB24C8⊂3•HPF6]
- Half-life [2, 8]: > 170 h
- pKaH+ (MeCN) ([3]; Table S2, rotaxane HPF6 salts): 20.3

SMILES: F[P-](F)(F)(F)(F)F.O=C(CC[NH2+]Cc1cc(C(F)(F)F)cc(C(F)(F)F)c1)Nc1cc(C(F)(F)F)cc(C(F)(F)F)c1.c1ccc2c(c1)OCCOCCOCCOc1ccccc1OCCOCCOCCO2 [DB24C8⊂8•HPF6]
- Half-life [2, 8]: > 170 h
- pKaH+ (MeCN) ([3]; Table S2, rotaxane HPF6 salts): 20.7

SMILES: C1CCC2=NCCCN2CC1 [DBU, 1,8-diazabicyclo(5.4.0)undec-7-ene, reference compound]
- Half-life ([2]; buffer, Half-life, 25 °C, 1 M NaOD in 9:1 d4-methanol:D2O, pseudo-first-order): 10.9 h
- Half-life ([2]; buffer, half-life (25 °C), hydrolytic decomposition, 1 M NaOD, 9:1 CD3OD/D2O, 25 °C): 11 h
- Half-life, t1/2 ([4]; 25 °C): 26.47 days
- half-life (h) (25 °C) ([4]; 25 °C): 635 h
- pKaH+ (MeCN) [1, 9]: 24.3[1]
- pKaH+ (MeCN) [1, 10]: 24.3
- pKaH+ (MeCN) ([1]; Table S2, reference superbases): 24.3

SMILES: CN(C)P(=NC(C)(C)C)(N(C)C)N(C)C [P1-^tBu, tert-butylimino-tris(dimethylamino)phosphorane, reference compound]
- Half-life [2, 8]: > 170 h
- half-life (25 °C) [2, 5]: >170 h
- half-life (80 °C) [2, 7]: >170 h
- Half-life, t1/2 ([4]; 25 °C): 17.45 days
- half-life (h) (25 °C) ([4]; 25 °C): 419 h
- pKaH+ (MeCN) [1, 9]: 27.0[1]
- pKaH+ (MeCN) [1, 10]: 27
- pKaH+ (MeCN) ([1]; Table S2, reference superbases): 27.0

SMILES: CN(C)c1cccc2cccc(N(C)C)c12 [proton-sponge]
- pKaH+ ([1]; in MeCN): 18.6
